Measurements published in PMC3652819, “A Cocoa Peptide Protects Caenorhabditis elegans from Oxidative Stress and β-Amyloid Peptide Toxicity” (PLoS ONE, 2013).
Residues, ends and D or L forms follow the SMILES beside them. No end group written: not given here. *: point of attachment. Cbz = O=C(OCc1ccccc1)*

Assays:
[1] = system: C. elegans strain CL4176 (Aβ1–42); experiment: body paralysis assay in transgenic C. elegans CL4176 expressing human Aβ1-42; format: in vivo, Caenorhabditis elegans; details: for Mid Paralysis (h), time when 50% of worms were paralyzed / % of worms non paralyzed at onset of paralysis / Onset Paralysis, time: peptides 1 µg/mL, ZPP 1 µM, “Barquillo” 10 µL/mL, fractions 10 µL/mL; for Mid Paralysis (h), time when 50% of worms were paralyzed: NGM 47 h; for % of worms non paralyzed at onset of paralysis: at the onset time, NGM 85.8%; for Onset Paralysis, time: time after Aβ42 induction, NGM 41 h; for effect on body paralysis (in words): compared with NGM controls
Method: Mutant strain GR1321 (tph-1(mg280)) was used in body fat reduction experiments. All the strains were obtained from the Caenorhabditis Genetics Center (University of Minnesota). Caenorhabditis elegans N2 and tph-1 were routinely propagated on Nematode Growth Medium (NGM) plates with Escherichia coli strain OP50 as a food source at 20°C, while CL4176 was maintained at 16°C. Worms were synchronized by isolating eggs from gravid adults at 20°C (N2 and tph-1) or 16°C (CL4176), and eggs were hatched overnight in NGM plates. In the experiments, the worms were fed with the different compounds from egg through to adult stages, and transferred to new plates every two days. […] ZPP (1 µM) was used as an internal positive control. Transgene expression was induced by up-shifting the temperature from 16°C to 25°C, starting 24 h after egg lying and maintained for 24 h. Then worms were incubated at 20°C until all the worms in the experiment became paralyzed. […] Paralysis in induced worms was compared with non-induced worms (maintained at 16°C until the end of the paralysis assay). Experiments were carried out in triplicate.

[2] = system: C. elegans strain CL4176 (Aβ1–42); details: ref [36], [37]; cited from earlier work
Excerpt: (§1) This could be explained by the release of bioactive peptides from the protein fraction of the by-product.

[3] = system: Aβ42; details: C. elegans; ref [36], [37]; cited from earlier work
Excerpt: as §1

[4] = molecular target: T1, prolyl endopeptidase (PEP) (Elizabethkingia meningoseptica, UniProt P27028); experiment: biochemical
T1 construct: purchased Seikagaku Corporation, Tokyo, Japan
T1 sequence (P27028 21-705): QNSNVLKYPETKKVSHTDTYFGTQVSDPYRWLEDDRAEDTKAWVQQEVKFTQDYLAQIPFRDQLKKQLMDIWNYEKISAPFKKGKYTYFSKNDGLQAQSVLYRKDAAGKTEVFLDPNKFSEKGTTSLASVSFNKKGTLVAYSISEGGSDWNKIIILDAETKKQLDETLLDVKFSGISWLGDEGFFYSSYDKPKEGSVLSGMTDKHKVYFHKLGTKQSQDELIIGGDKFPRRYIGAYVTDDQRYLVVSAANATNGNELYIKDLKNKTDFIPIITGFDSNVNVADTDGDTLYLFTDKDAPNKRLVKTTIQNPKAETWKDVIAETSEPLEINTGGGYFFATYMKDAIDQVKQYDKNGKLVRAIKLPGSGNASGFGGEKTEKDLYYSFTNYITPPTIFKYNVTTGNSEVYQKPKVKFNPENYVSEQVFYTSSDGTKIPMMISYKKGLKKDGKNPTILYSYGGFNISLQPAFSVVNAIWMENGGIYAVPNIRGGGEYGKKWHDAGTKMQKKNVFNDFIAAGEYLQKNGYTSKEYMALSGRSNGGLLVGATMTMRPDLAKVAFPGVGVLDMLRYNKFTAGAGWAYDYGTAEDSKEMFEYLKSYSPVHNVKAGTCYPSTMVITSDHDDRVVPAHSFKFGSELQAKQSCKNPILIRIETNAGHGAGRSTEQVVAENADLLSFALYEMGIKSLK
Method: Prolyl endopeptidase (PEP) activity was determined using a previously described method. Reaction was performed by addition of 0.1 U/ml of PEP (Seikagaku Corporation, Tokyo, Japan) to a 100 mM phosphate buffer pH 7 containing 2 mM of Z-Gly-Pro-p-nitroaniline (Sigma, Madrid, Spain). Samples were incubated for 20 min at 30°C and then the reaction was stopped by adding a volume of 10.5% Triton X-100 in 1 M sodium acetate buffer pH 4. The amount of ρ-nitroaniline released was quantified by spectrophotometry at 410 nm. The inhibitory activity of PEP was determined by adding 100 µl of each sample obtained during the purification process to the enzymatic reaction. Z-Prolyl-Prolinal (ZPP) (0.000426 ppm, Biomol, Plymouth Meeting, USA) was used as positive control of inhibition.

[5] = system: C. elegans wild-type strain N2; experiment: survival of wild-type C. elegans N2 after H2O2-induced oxidative stress; format: in vivo, Caenorhabditis elegans; details: compared with NGM
Method: Experiments of oxidative stress, body fat reduction and microarrays were carried out with the wild-type strain N2 (Bristol). Paralysis assays were performed with the transgenic strain CL4176 (smg-1^ts [pAF29(myo-3/Aβ1–42/let UTR)+pRF4(rol-6(su10069))]). Paralysis is induced in strain CL4176 by expression of a muscle-specific Aβ1–42, which depends on up-shifting temperature from 16 to 25°C [21], [22]. Mutant strain GR1321 (tph-1(mg280)) was used in body fat reduction experiments. All the strains were obtained from the Caenorhabditis Genetics Center (University of Minnesota).
Caenorhabditis elegans N2 and tph-1 were routinely propagated on Nematode Growth Medium (NGM) plates with Escherichia coli strain OP50 as a food source at 20°C, while CL4176 was maintained at 16°C. Worms were synchronized by isolating eggs from gravid adults at 20°C (N2 and tph-1) or 16°C (CL4176), and eggs were hatched overnight in NGM plates. In the experiments, the worms were fed with the different compounds from egg through to adult stages, and transferred to new plates every two days. […]
Viability of C. elegans was assessed after oxidative stress and differences between nematodes cultured in control and treatment conditions were evaluated by means of one-way analysis of variance (ANOVA) using Statgraphics plus (version 5.1) software (Manugistics, Rockville, MD).

Row | Compound | Mid Paralysis (h), time when 50% of worms were paralyzed [1] [h] | % of worms non paralyzed at onset of paralysis [1] [%] | Onset Paralysis, time [1] [h] | IC50 [4] [µM] | effect on worm survival after oxidative stress (in words) [5] | effect on body paralysis (in words) [1] | other results
1 | O=C[C@@H]1CCCN1C(=O)[C@@H]1CCCN1C(=O)OCc1ccccc1 [ZPP, Z-Prolyl-Prolinal, reference compound] (Cbz-Pro-Pro-aldehyde) | >49 | 96.7 | 41 | – | – | – | –
2 | COC(=O)[C@H]1[C@H]2C[C@@H]3c4[nH]c5cc(OC)ccc5c4CCN3C[C@H]2C[C@@H](OC(=O)c2cc(OC)c(OC)c(OC)c2)[C@@H]1OC [reserpine] | – | – | – | – | – | – | effect on paralysis (in words) [2]: effect on delaying paralysis; effect on Aβ peptide expression levels (in words) [3]: no effects were observed in Aβ peptide expression levels
3 | DNYDNSAGKWWVT [13L, DNYDNSAGKWWVT] | – | – | – | 122 | – | – | –
4 | GVKGEPGPNTL [11R, GVKGEPGPNTL] | 49 | 89.9 | 41 | – | significant protection upon oxidative stress | ability to ameliorate Aβ-induced paralysis | –
5 | NYDNSAGKW [9L, NYDNSAGKW] | – | – | – | 484 | – | – | –
6 | TDGVKGEPGPNTL [13R, synthesized peptide from the 21 kDa seed protein of Theobroma cacao] | 49 | 83.4 | 41 | – | did not produce a significant effect on worm survival rates | ability to ameliorate Aβ-induced paralysis | inhibitory activity (IC50) against PEP enzyme ([4]; synthetic peptides, 0.1 U/ml PEP, 2 mM Z-Gly-Pro-p-nitroaniline, pH 7, 20 min at 30°C, 410 nm): > 1480 µg/mL
